This is an account of results in article PMC10692723 (The Journal of Biological Chemistry, 2023).

Sequences and labels used below:
B1: FITC-conjugated CD44 peptide (SRRRCGQKKKLVINSGNGAVEDYK-FITC) (peptide)
peptide: SRRRCGQKKKLVINSGNGAVEDYK(FITC)
B2: MSN FERM domain (1-345) H288A, untagged (domain or fragment)
chain: MPKTISVRVTTMDAELEFAIQPNTTGKQLFDQVVKTIGLREVWFFGLQYQDTKGFSTWLKLNKKVTAQDVRKESPLLFKFRAKFYPEDVSEELIQDITQRLFFLQVKEGILNDDIYCPPETAVLLASYAVQSKYGDFNKEVHKSGYLAGDKLLPQRVLEQHKLNKDQWEERIQVWHEEHRGMLREDAVLEYLKIAQDLEMYGVNYFSIKNKKGSELWLGVDALGLNIYEQNDRLTPKIGFPWSEIRNISFNDKKFVIKPIDKKAPDFVFYAPRLRINKRILALCMGNAELYMRRRKPDTIEVQQMKAQAREEKHQKQMERAMLENEKKKREMAEKEKEKIEREKE
B3: MSN FERM domain (1-345) L281R, untagged (domain or fragment)
chain: B2 chain with L281R, A288H

Changes are numbered by the printed parent chain. Numbers in names are those of the source. Ends that are not written are not given here. * marks the point of attachment. FITC = O=C1OC2(c3ccc(O)cc3Oc3cc(O)ccc32)c2ccc(NC(=S)*)cc21

The target in data set [1] is GST-MSN and Venus-Flag-CD44 (Homo sapiens, UniProt P26038). Kind of data set: GST pull-down assay in cell lysates. It counts as binding. As to conditions: full-length GST-MSN and Flag-CD44.
Sequence of GST-MSN and Venus-Flag-CD44 (P26038 whole entry): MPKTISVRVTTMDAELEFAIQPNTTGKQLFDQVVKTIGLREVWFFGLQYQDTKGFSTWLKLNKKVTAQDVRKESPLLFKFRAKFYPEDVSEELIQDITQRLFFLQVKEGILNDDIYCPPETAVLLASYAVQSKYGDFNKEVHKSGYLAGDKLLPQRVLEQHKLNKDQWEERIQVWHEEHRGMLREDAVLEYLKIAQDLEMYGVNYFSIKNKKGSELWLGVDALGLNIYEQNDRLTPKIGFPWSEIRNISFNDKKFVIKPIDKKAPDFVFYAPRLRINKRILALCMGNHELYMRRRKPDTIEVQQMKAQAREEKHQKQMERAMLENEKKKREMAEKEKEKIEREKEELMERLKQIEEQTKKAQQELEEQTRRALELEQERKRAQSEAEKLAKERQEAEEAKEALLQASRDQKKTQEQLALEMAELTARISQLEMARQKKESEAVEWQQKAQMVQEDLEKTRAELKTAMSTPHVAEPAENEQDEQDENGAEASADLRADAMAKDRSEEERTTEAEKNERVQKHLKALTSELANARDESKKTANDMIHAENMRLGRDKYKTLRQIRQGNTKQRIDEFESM
The nature of data set [2]: Solubility by nephelometry. Particulars: aqueous / PBS buffer.
In another data set the target is MSN–CD44 interaction (Homo sapiens, UniProt P26038). Kind of data set: MSN–CD44 TR-FRET assay. In kind it is binding. As to conditions: for increase in potency relative to compound 2: MSN–CD44 TR-FRET.
Sequence of MSN–CD44 interaction (P26038 1-345): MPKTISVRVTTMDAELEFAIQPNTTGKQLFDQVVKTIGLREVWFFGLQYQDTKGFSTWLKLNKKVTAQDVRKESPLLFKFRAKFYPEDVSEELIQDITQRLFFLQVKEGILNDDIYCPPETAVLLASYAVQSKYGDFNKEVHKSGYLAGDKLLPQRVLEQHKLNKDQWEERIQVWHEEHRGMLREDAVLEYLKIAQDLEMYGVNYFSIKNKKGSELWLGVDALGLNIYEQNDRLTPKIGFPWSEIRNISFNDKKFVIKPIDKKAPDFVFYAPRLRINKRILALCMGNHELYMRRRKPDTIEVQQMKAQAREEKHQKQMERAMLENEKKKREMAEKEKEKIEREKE
In data set [3] the target is T1, 6His-tagged MSN FERM domain (residues 1-345), wild type (human, UniProt P26038 1-345). Briefly: FRET or BRET. (In BRET a luciferase serves as donor, and the signal depends on an acceptor being close.)
Data set [4] deals with T1, 6His-tagged MSN FERM domain (residues …). Briefly: FRET or BRET. This is another data set of the same source.
The target of data set [5] is MSN FERM domain (residues 1-345), wild type, 6His tag cleaved (human, UniProt P26038 1-345). Kind of data set: FRET or BRET.
The target of data set [6] is T1, 6His-tagged MSN FERM domain (residues …). Briefly: FRET or BRET. The source holds these as a separate data set.
In data set [7] the target is B1. Kind of data set: FRET or BRET.

As for `O=C(Nc1ccc(-c2nc3ccccc3[nH]2)cc1)c1cccc(Cl)c1` [Compound 2b, N-(4-(1H-benzo[d]imidazol-2-yl)phenyl)-3-chlorobenzamide], the “effect on MSN–CD44 interaction in GST pull-down assay” value (from here on “effect on MSN–CD44 interaction”) in data set [1] is “able to inhibit the MSN–CD44 interaction”. Also, the “solubility” value in data set [2] is reported as “improved solubility”. Moreover, at MSN–CD44 interaction, the “h (hill slope) of MSN–CD44 TR-FRET dose response” value (“h (hill slope)” for short) is on record as 2.3 and the “increase in potency relative to compound 2” value is reported as “approximately 2 fold”.

For the molecule `COc1ccc(C(=O)Nc2ccc(-c3nc4ccccc4[nH]3)cc2)c(OC)c1` [Compound 2a, N-(4-(1H-benzo[d]imidazol-2-yl)phenyl)-2,4-dimethoxybenzamide], in data set [1], the “effect on MSN–CD44 interaction” value is reported as “able to inhibit the MSN–CD44 interaction”. The “solubility” value in data set [2] is on record as “improved solubility”. At MSN–CD44 interaction, the “h (hill slope)” value is recorded as 2.4 and the “increase in potency relative to compound 2” value was “approximately 2 fold”.

Turning to `Nc1ccc(C(=O)Nc2ccc(-c3nc4ccc(NC(=O)c5ccc(N)cc5)cc4s3)cc2)cc1.O=C(O)C(F)(F)F.O=C(O)C(F)(F)F` [Compound 1, 4-amino-N-(4-(6-(4-aminobenzamido)benzo[d]thiazol-2-yl)phenyl)benzamide bis(2,2,2-trifluoroacetate)], the “effect on MSN–CD44 interaction” value in data set [1] is recorded as “induce the dissociation of CD44 from MSN”. For the same molecule, the “h (hill slope)” value at MSN–CD44 interaction amounted to 1.7.

With `COc1ccccc1C(=O)Nc1ccc(-c2nc3ccccc3[nH]2)cc1` [Compound 2, N-(4-(1H-benzo[d]imidazol-2-yl)phenyl)-2-methoxybenzamide], in data set [1], the “effect on MSN–CD44 interaction” value is listed as “induce the dissociation of CD44 from MSN”. Further, the “solubility” value in data set [2] is given as “low solubility”. Further, the “h (hill slope)” value at MSN–CD44 interaction amounted to 15.8.

Consider EDGGSSWEYIWTLPSG [C3S1-pd peptide], for which the EC50 (as a rule, the concentration needed to bring the measured effect to its halfway point) in data set [3] was around 130 nM. In addition, the IC50 (in general, the midpoint of a concentration-inhibition curve) in data set [4] is around 220 nM.

As to B1, the binding result in data set [5] and in data set [6] was “binds” throughout.

As for B2, in data set [7], the “fold higher concentration needed to inhibit, against WT MSN” value is 10 fold.

In the case of B3, the “fold higher concentration needed to inhibit, against WT MSN” value in data set [7] was determined as 10 fold.
